From article PMC8327344, “Regulation of a pentameric ligand-gated ion channel by a semiconserved cationic lipid-binding site” (The Journal of Biological Chemistry, 2021) come the findings set out here.

Test [1] has as its system ELIC with fluorinated Trp at W206. Put plainly: Two-electrode voltage clamp of oocytes, noncanonical fluorinated Trp (FW, F2W, F3W) at position 206. The following applies: F3W at position 206, compared with WT. It is filed as cell-based, D. didantii. The protocol: Site-directed mutagenesis was performed using the QuikChange strategy (Stratagene) using ELIC in pGEM-HE. Mutations were confirmed by sequencing. For noncanonical amino acid mutants, the site of interest was mutated to the TAG stop codon. Plasmids were linearized and receptor mRNA prepared by in vitro runoff transcription using the Ambion T7 mMessage mMachine kit. Noncanonical amino acids ligated to tRNA were prepared as previously described ([56]).
Stage V-VI oocytes of Xenopus laevis were harvested and injected with mRNAs as described previously. For experiments with WT channels and conventional mutants, each cell received a single injection of 10 to 25 ng of receptor mRNA approximately 24 h before recording. For nonsense suppression experiments, each cell was injected with 50 to 100 ng each of receptor mRNA and appropriate tRNA approximately 48 h before recording. Injection volumes for each injection session were 50 to 100 nl per cell.
Two-electrode voltage clamping of Xenopus oocytes was performed using an OpusXpress system (Axon Instruments, Inc). All experiments were performed at 22 to 25 °C. […] The holding potential was −60 mV unless otherwise specified. Concentration–response curves and parameters were obtained using Prism software (GraphPad, PRISM).
(In general: In two-electrode clamp one electrode senses voltage and the other passes current.)

The target in test [2] is T1, ELIC W206F (Dickeya chrysanthemi, UniProt P0C7B7, INS163G/W205F).
T1 construct: expressed in transfected cells; host or cells: HEK293
Put plainly: FlexStation membrane potential dye assay, GABA-elicited responses. The test is classed as cell-based, D. didantii. The following applies: HEK293 cells, n = 4. On the procedure:
(§1) These methods were similar to those previously described ([55]). Briefly, ELIC cDNA was transfected into HEK293 cells, and these were then grown for 2 to 3 days in a 96-well plate. Then blue fluorescent membrane potential dye (Molecular Devices Ltd) diluted in Flex buffer (10 mM HEPES, 115 mM NaCl, 1 mM KCl, 1 mM CaCl2, 1 mM MgCl2, 10 mM glucose, pH 7.4) was added to each well. After incubation at 37 °C for 30 min, plates were placed in a FlexStation (Molecular Devices Ltd) and fluorescence measured every 2 s for 120 s. […] Concentration–response data were fitted to the four-parameter logistic equation, F = Fmin + (Fmax − Fmin)/(1 + 10^log(EC50-[A])∗^nH), where [A] is the concentration of agonist, nH is the Hill coefficient, and Fmax and Fmin are the maximal and minimal fluorescence levels for each dataset, using Prism software (GraphPad). WT and mutant responses were compared using an ANOVA test followed by Dunnett’s multiple comparison test.

Test [3] has as its system wild-type (WT) ELIC. Described as above. The test is classed as cell-based, D. didantii. Conditions: HEK293 cells transfected with WT ELIC. On the procedure:
as §1

In test [4] the target is T2, ELIC W206A (Dickeya chrysanthemi, UniProt P0C7B7, INS163G/W205A).
T2 construct: expressed in transfected cells; host or cells: HEK293
Described as above. It is filed as cell-based, D. didantii. The following applies: HEK293 cells, up to 100 mM GABA. On the procedure: as §1

For test [5], the system named is ELIC W206Y. Described as above. The test is classed as cell-based, D. didantii. Conditions: HEK293 cells. The protocol:
as §1

Test [6] deals with α1β2 εF260E mutant GABAAR. The test is described as follows: Two electrode voltage clamp recordings from Xenopus oocytes. The test is classed as cell-based, human. Conditions: ε F260E compared with WT.
Method: Mutations were engineered with a QuikChange strategy and confirmed by sequencing. For functional expression of GABAAR containing an ε subunit, the mRNAs encoding for the human α1 (NP_000797.2), β2 (NP_068711.1) and ε subunits were mixed in a 1:1:0.1 ratio in nuclease-free distilled water at a concentration of 0.4 μg/μl (n.b. the definitive stoichiometry of the expressed receptors was not determined). […] Injection of 2 ng of mRNA per oocyte was done using the automated injection system Roboinject (Multi Channel Systems). Oocytes were incubated at 18 °C for 2 to 5 days prior to conducting the electrophysiological recordings using the two electrode automated voltage clamp system (HiClamp apparatus, Multi Channel Systems). […] Data acquired with the HiClamp were analyzed using the manufacturer’s software (Multi Channel Systems). Concentration–activation curves were fitted with the empirical Hill equation. Data are presented as the mean ± standard deviation (SD). Statistical comparison between WT and mutants was done with an unpaired, two-tailed t test with Welch’s correction for unequal sample size and variance.

One may read the EC50 as the concentration giving half of the maximal effect. Low readings indicate an effect from little substance, high ones a need for much substance. A word on the pEC50: it is −log10 of the EC50, conventionally taken in molar units. Low readings indicate a large EC50, high ones a small EC50. Usually Hill coefficient stands for the slope factor of the fitted curve. `NCCCC(=O)O` [GABA]: in test [1], the “change of EC50-values” is reported as “increased EC50-values”. In test [2], this molecule yielded a 50% effective concentration (EC50) of 2000 µM and a pEC50 of 2.694 ± 0.08. This molecule also displayed a Hill coefficient in test [3] of 2.2 ± 1.4. Also, in test [4], the GABA-elicited response entry is “no response”. Besides, in test [5], the maximal response was ~60 % of WT. The “decrease of apparent GABA affinity” value in test [6] is “threefold”.
